Test results as given in patent publication US11814367B2, “Inhibitors of glycogen synthase 1 (GYS1) and methods of use thereof” (Maze Therapeutics, Inc., priority 2021, dated 2023).

Assays:
[1] = target: hGYS1 enzyme (recombinant hGYS1/GN1 protein) (Homo sapiens (Human), UniProt P13807); experiment: GYS1 coupled enzyme assay (PK/LDH); format: biochemical; settings: hGYS1/GN1 50 nM, UDP-Glucose 0.8 mM, G6P 1 mM; geometric mean of at least 2 runs
[2] = test system: hGYS1 enzyme / glycogen synthesis in HeLa cells; experiment: GYS1 cell based assay (glycogen synthesis, Glucose-glo); parameters: species or system human; settings: 24 h incubation, 20 mM glucose, geometric mean of at least 2 runs
From the text: The GYS1 cell based assay is a bioluminescent assay that quantifies the glucose resulting from glycogen digestion; the quantified glucose is an indirect measure of GYS1 glycogen synthesis. Newly synthesized glycogen is digested using Glucoamylase; the resulting glucose is quantified by using the Glucose-glo assay kit from Promega. Glucose-glo works by coupling glucose oxidation and NADH production with a bioluminescent system that is activated with NADH. Glucose is oxidized by Glucose dehydrogenase and the reaction reduces NAD+ to NADH; NADH activates Reductase which reduces a pro-luciferin Reductase Substrate to luciferin. Luciferin is detected in a luciferase reaction using Ultra-Glo rLuciferase and ATP, and the luminesce produced is proportional to the glucose in the sample. The luminescence is measured as a single point read in a plate reader.
Compounds that inhibit the hGYS1 enzyme and, subsequently, the glycogen synthesis in cells, were tested using assay ready plates (white, clear bottom 384 well plates) in a final DMSO reaction volume of 1% DMSO. Compounds in the assay ready plates were mixed with media with no additives, except for 20 mM glucose prior to cell addition. HeLa cells were starved in media with no additives, except for 1× Glutamax for 24 h. Starved HeLa cells were plated, in a 1:1 ratio to the media in the assay ready plate and incubated for 24 h at 37° C. and 5% C02. Cells were washed in 1×PBS buffer and lysed in lysis buffer containing 50% 1×PBS and 25% 0.3 N HCl of the final volume in the well or reaction volume; cells were incubated with lysis buffer for 10 minutes and quenched with the remaining 25% of the reaction volume that consisted of 450 mM Tris pH 8.0. Lysates were mixed in a 1:1 ratio with Glucoamylase in 100 mM Sodium Acetate buffer, pH 5.3; the mixture was incubated for 1 h at 37° C. The digested lysate was mixed in a 1:1 ratio with Glucose-glo detection mixture as per vendor recommendations (Luciferase detection buffer, Reductase, Reductase substrate, Glucose dehydrogenase, and NAD) in read-out plates (solid white 384-well plates) and incubated for 1 h at RT. The plates were read using a plate reader with luminescence capabilities. Each compound concentration Relative Luminescence Unit (RLU) was averaged and normalized to the average RLU of the positive and negative controls to obtain a percentage inhibition. The normalized data vs. concentration was plotted; to determine the half-maximal concentration (IC50), the Levenberg-Marquardt algorithm was used to fit a Hill equation to the dose response data.
The results are shown in Table 3 below, which reports the IC50 of each compound. Unless otherwise specified, IC50 values are reported as the geometric mean of at least 2 assay runs on separate days. As shown in the table below, the compounds of the present invention are potent inhibitors of human GYS1. Unless otherwise specified, IC50 values are reported as the geometric mean of at least two assay runs on separate days. Each run represents the average of a technical replicate, where each compound was assayed twice in the same plate. A superscript “#” symbol in Table 3 indicates results from a single assay run.

Chain of hGYS1 enzyme (recombinant hGYS1/GN1 protein) (P13807 whole entry): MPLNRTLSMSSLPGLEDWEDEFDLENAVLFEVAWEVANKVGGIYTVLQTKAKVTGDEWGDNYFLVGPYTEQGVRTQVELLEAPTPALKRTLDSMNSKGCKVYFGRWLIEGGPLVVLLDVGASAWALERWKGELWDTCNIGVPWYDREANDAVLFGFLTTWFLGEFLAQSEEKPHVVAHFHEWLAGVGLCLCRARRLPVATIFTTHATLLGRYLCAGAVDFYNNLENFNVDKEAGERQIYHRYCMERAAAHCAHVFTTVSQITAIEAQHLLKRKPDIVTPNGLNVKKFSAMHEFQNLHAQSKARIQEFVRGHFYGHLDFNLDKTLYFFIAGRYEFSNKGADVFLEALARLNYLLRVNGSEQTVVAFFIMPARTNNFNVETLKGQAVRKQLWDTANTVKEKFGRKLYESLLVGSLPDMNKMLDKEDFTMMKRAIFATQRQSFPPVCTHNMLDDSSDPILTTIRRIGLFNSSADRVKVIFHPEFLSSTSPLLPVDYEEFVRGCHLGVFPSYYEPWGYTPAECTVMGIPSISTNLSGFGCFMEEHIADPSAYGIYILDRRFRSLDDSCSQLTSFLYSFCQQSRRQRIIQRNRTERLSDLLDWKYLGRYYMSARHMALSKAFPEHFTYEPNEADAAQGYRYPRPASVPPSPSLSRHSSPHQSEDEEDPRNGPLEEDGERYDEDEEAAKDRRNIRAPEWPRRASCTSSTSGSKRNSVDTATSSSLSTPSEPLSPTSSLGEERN
Chain of hGYS1 enzyme (recombinant hGYS1/GN1 protein) (P46976 whole entry partner): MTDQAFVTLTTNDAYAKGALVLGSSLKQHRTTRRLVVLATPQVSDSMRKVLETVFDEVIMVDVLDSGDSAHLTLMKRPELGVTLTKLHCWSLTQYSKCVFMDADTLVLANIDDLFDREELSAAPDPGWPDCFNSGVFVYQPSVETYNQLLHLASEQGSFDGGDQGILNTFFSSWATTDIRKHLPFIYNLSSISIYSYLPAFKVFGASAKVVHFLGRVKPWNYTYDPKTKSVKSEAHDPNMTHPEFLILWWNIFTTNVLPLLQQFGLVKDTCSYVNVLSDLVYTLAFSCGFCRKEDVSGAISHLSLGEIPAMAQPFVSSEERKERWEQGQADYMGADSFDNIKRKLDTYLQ

SMILES	IC50 [1] [µM]	IC50 ([2]; Homo sapiens, HeLa, 24 h) [µM]	IC50 [2] [µM]
COc1nc(C(NC(=O)[C@@H]2C[C@@H](F)CN2C(=O)Cc2cnn[nH]2)c2ccccc2)ccc1C(C)C (single isomer, unassigned) [Compound 612, (2S,4R)-4-fluoro-N-[(S) or (R)-[6-methoxy-5-(propan-2-yl)pyridin-2-yl] (phenyl)methyl]-1-[2-(1H-1,2,3-triazol-5-yl)acetyl]pyrrolidine-2-carboxamide]	2.18	> 28.9	–
Cc1cc(C(NC(=O)[C@@H]2C[C@@H](F)CN2C(=O)Cc2cnn[nH]2)c2cccnc2N)ccc1C(C)C (single isomer, unassigned) [Compound 624, (2S,4R)-N-[(R) or (S)-(2-aminopyridin-3-yl)[3-methyl-4-(propan-2-yl)phenyl]methyl]-4-fluoro-1-[2-(1H-1,2,3-triazol-5-yl)acetyl]pyrrolidine-2-carboxamide]	0.408	5.79	–
COc1ncccc1C(NC(=O)[C@@H]1C[C@@H](F)CN1C(=O)Cc1cnn[nH]1)c1ccc(C2(C)CC2)c(F)c1 (single isomer, unassigned) [Compound 626, (2S,4R)-4-fluoro-N-[(R) or (S)-[3-fluoro-4-(1-methylcyclopropyl)phenyl](2-methoxypyridin-3-yl)methyl]-1-[2-(1H-1,2,3-triazol-5-yl)acetyl]pyrrolidine-2-carboxamide]	0.805	> 30	–
CC(C)c1ccc(C(NC(=O)[C@@H]2C[C@@H](F)CN2C(=O)Cc2cnn[nH]2)c2ncc3ccccn23)nc1F (single isomer, unassigned) [Compound 628, (2S,4R)-4-fluoro-N-[(R) or (S)-[6-fluoro-5-(propan-2-yl)pyridin-2-yl]({imidazo[1,5-a]pyridin-3-yl})methyl]-1-[2-(1H-1,2,3-triazol-5-yl)acetyl]pyrrolidine-2-carboxamide]	2.78	> 30	–
CC(C)c1ccc(C(NC(=O)[C@@H]2C[C@@H](F)CN2C(=O)Cc2cnn[nH]2)c2ncn3ccccc23)nc1F (single isomer, unassigned) [Compound 629, (2S,4R)-4-fluoro-N-[(S) or (R)-[6-fluoro-5-(propan-2-yl)pyridin-2-yl]({imidazo[1,5-a]pyridin-1-yl})methyl]-1-[2-(1H-1,2,3-triazol-5-yl)acetyl]pyrrolidine-2-carboxamide]	1.48	> 23.9	–
Cn1c(=O)[nH]c2c(C(NC(=O)[C@@H]3C[C@@H](F)CN3C(=O)Cc3cnn[nH]3)c3ccc(C4CC4)c(F)c3)cccc21 (single isomer, unassigned) [Compound 650, (2S,4R)-N-[(R) or (S)-(4-cyclopropyl-3-fluorophenyl)(1-methyl-2-oxo-2,3-dihydro-1H-1,3-benzodiazol-4-yl)methyl]-4-fluoro-1-[2-(1H-1,2,3-triazol-5-yl)acetyl]pyrrolidine-2-carboxamide]	1.44	> 10	–
CC(C)c1ccc(C(NC(=O)[C@@H]2C[C@@H](F)CN2C(=O)Cc2cnn[nH]2)C2CC2)cc1F (single isomer, unassigned) [Compound 652, (2S,4R)-N-[(S) or (R)-cyclopropyl[3-fluoro-4-(propan-2-yl)phenyl]methyl]-4-fluoro-1-[2-(1H-1,2,3-triazol-5-yl)acetyl]pyrrolidine-2-carboxamide]	1.2	21.6	–
CC(C)c1ccc(C(NC(=O)[C@@H]2C[C@@H](F)CN2C(=O)Cc2cnn[nH]2)c2ccccc2)cc1C(F)(F)F (single isomer, unassigned) [Compound 683, (2S,4R)-4-fluoro-N-[(S) or (R)-phenyl[4-(propan-2-yl)-3-(trifluoromethyl)phenyl]methyl]-1-[2-(1H-1,2,3-triazol-5-yl)acetyl]pyrrolidine-2-carboxamide]	2.36	> 30	–
CC(=O)NCC(=O)N1C[C@H](F)C[C@H]1C(=O)NC(c1cccc(-c2ccn[nH]2)c1)c1ccc(C(C)C)c(F)n1 (single isomer, unassigned) [Compound 691, (2S,4R)-1-(2-acetamidoacetyl)-4-fluoro-N-[(S) or (R)-[6-fluoro-5-(propan-2-yl)pyridin-2-yl][3-(1H-pyrazol-5-yl)phenyl]methyl] pyrrolidine-2-carboxamide]	0.015	0.39	–

Further lines, results first:

IC50 [1] [µM]	IC50 ([2]; Homo sapiens, HeLa, 24 h) [µM]	IC50 [2] [µM]	SMILES
0.443	> 10	–	Cc1cc(C(NC(=O)[C@@H]2C[C@@H](F)CN2C(=O)CNC(=O)N(C)C)c2cccnc2N)ccc1C(C)C (single isomer, unassigned) [Compound 622, (2S,4R)-N-[(R) or (S)-(2-aminopyridin-3-yl)[3-methyl-4-(propan-2-yl)phenyl]methyl]-1-{2-[(dimethylcarbamoyl)amino]acetyl}-4-fluoropyrrolidine-2-carboxamide]
1.62	29.5	–	Cc1ncccc1C(NC(=O)[C@@H]1C[C@@H](F)CN1C(=O)Cc1cnn[nH]1)c1ccc(C2(C)CC2)c(F)c1 (single isomer, unassigned) [Compound 627, (2S,4R)-4-fluoro-N-[(R) or (S)-[3-fluoro-4-(1-methylcyclopropyl)phenyl](2-methylpyridin-3-yl)methyl]-1-[2-(1H-1,2,3-triazol-5-yl)acetyl]pyrrolidine-2-carboxamide]
1.6	–	> 30	CC(C)c1ccc(C(NC(=O)[C@@H]2C[C@@H](F)CN2C(=O)Cc2cnn[nH]2)c2ccc3cn[nH]c3c2)nc1F (single isomer, unassigned) [Compound 633, (2S,4R)-4-fluoro-N-[(R) or (S)-[6-fluoro-5-(propan-2-yl)pyridin-2-yl](1H-indazol-6-yl)methyl]-1-[2-(1H-1,2,3-triazol-5-yl)acetyl]pyrrolidine-2-carboxamide]
0.127	1.5	–	O=C(NC(c1ccc(C2CC2)c(F)n1)c1ccccc1F)[C@@H]1C[C@@H](F)CN1C(=O)Cn1nnnc1C(F)F (single isomer, unassigned) [Compound 657, (2S,4R)-N-[(S) or (R)-(5-cyclopropyl-6-fluoropyridin-2-yl)(2-fluorophenyl)methyl]-1-{2-[5-(difluoromethyl)-1H-1,2,3,4-tetrazol-1-yl]acetyl}-4-fluoropyrrolidine-2-carboxamide]
0.099	1.66	–	O=C(NC(c1ccc(F)cc1)c1ccc(C2CC2)c(F)n1)[C@@H]1C[C@@H](F)CN1C(=O)Cn1nnnc1C(F)F (single isomer, unassigned) [Compound 658, (2S,4R)-N-[(S) or (R)-(5-cyclopropyl-6-fluoropyridin-2-yl)(4-fluorophenyl)methyl]-1-{2-[5-(difluoromethyl)-1H-1,2,3,4-tetrazol-1-yl]acetyl}-4-fluoropyrrolidine-2-carboxamide]
1.06	–	> 10	Cc1cc(C(NC(=O)[C@@H]2C[C@@H](F)CN2C(=O)Cc2cnn[nH]2)c2ccccc2)cc(F)c1C(C)C (single isomer, unassigned) [Compound 678, (2S,4R)-4-fluoro-N-[(R) or (S)-[3-fluoro-5-methyl-4-(propan-2-yl)phenyl](phenyl)methyl]-1-[2-(1H-1,2,3-triazol-5-yl)acetyl]pyrrolidine-2-carboxamide]
2.48	–	> 30	CC(C)c1ccc(C(NC(=O)[C@@H]2C[C@@H](F)CN2C(=O)Cc2cnn[nH]2)c2cccc(-c3cnco3)c2)nc1F (single isomer, unassigned) [Compound 692, (2S,4R)-4-fluoro-N-[(R) or (S)-[6-fluoro-5-(propan-2-yl)pyridin-2-yl][3-(1,3-oxazol-5-yl)phenyl]methyl]-1-[2-(1H-1,2,3-triazol-5-yl)acetyl]pyrrolidine-2-carboxamide]
0.056	–	1.15	CC(C)c1ccc(C(NC(=O)[C@@H]2C[C@@H](F)CN2C(=O)Cc2cnn[nH]2)c2cccc(-c3cnco3)c2)nc1F (single isomer, unassigned) [Compound 693, (2S,4R)-4-fluoro-N-[(S) or (R)-[6-fluoro-5-(propan-2-yl)pyridin-2-yl][3-(1,3-oxazol-5-yl)phenyl]methyl]-1-[2-(1H-1,2,3-triazol-5-yl)acetyl]pyrrolidine-2-carboxamide]
